According to patent US20050208511A1, “DMBT1 as a clinical marker and uses thereof” (priority 2003, published 2005):

Test system: endometrium
Assay: average endometrial thickness in treated monkeys
Type: in vivo, cynomolgus monkeys (Macaca fascicularis)
Settings: Intact/leuprolide (leuprolide for 40 days)

For `CCNC(=O)[C@@H]1CCCN1C(=O)[C@H](CCCNC(=N)N)NC(=O)[C@H](CC(C)C)NC(=O)[C@@H](CC(C)C)NC(=O)[C@H](Cc1ccc(O)cc1)NC(=O)[C@H](CO)NC(=O)[C@H](Cc1c[nH]c2ccccc12)NC(=O)[C@H](Cc1c[nH]cn1)NC(=O)[C@@H]1CCC(=O)N1` [leuprolide], which “Endometrial Thickness (mm)” value is on record?
Its value is 1.25 mm.
